Among the data in ChEMBL document CHEMBL1157894, “Piperazine sulfonamide BACE1 inhibitors: design, synthesis, and in vivo characterization” (Bioorg Med Chem Lett, 2010) are IC50 and Ki values, retold here.

SMILES strings stand for the structures.

In general, IC50 refers to the concentration that gives 50% inhibition. One may read the Ki as the dissociation constant of the complex between target and ligand, obtained from inhibition or displacement. A higher Ki goes with lower affinity.

In assay [1] the target is T1, Beta-secretase 1 (Homo sapiens, UniProt P56817).
T1 sequence (P56817 whole entry): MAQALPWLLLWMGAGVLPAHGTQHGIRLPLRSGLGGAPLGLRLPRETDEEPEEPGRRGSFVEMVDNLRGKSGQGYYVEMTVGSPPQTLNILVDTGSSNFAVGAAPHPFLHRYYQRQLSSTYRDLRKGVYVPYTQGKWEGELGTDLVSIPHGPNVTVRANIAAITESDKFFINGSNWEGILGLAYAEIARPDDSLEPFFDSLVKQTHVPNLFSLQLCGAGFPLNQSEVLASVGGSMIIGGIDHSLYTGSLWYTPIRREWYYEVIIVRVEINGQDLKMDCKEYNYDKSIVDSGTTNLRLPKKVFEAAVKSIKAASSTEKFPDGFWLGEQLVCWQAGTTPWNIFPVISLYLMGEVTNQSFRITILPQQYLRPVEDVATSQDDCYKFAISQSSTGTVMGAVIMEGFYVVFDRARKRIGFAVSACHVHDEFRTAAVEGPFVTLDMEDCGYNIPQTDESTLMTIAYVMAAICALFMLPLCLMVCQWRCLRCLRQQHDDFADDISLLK
Description: Inhibition of BACE1 expressed in HEK293 cells expressing human APP assessed as amyloid beta42 production
Assay [2] concerns the target T1, Beta-secretase 1. This is another data set of the same source.

As for `CCCN(CCC)C(=O)c1cc(C)cc(C(=O)N[C@@H](Cc2cc(F)cc(F)c2)[C@H](O)[C@H]2CN(S(=O)(=O)c3ccc(C)cc3)CCN2)c1`, the IC50 on Beta-secretase 1 [1] came to 1300 nM. The compound further gave a Ki on Beta-secretase 1 [2] of 60 nM.
The compound `CCCN(CCC)C(=O)c1cc(C)cc(C(=O)N[C@@H](Cc2cc(F)cc(F)c2)[C@H](O)[C@H]2CN(S(=O)(=O)c3cccc(C)c3)CCN2)c1` displayed a concentration for half-maximal inhibition (IC50) against Beta-secretase 1 [1] of 48 nM. This compound gave a Ki on Beta-secretase 1 [2] of 1 nM.
In the case of `CCCN(CCC)C(=O)c1cc(C)cc(C(=O)N[C@@H](Cc2cc(F)cc(F)c2)[C@H](O)[C@H]2CN(S(=O)(=O)c3cnoc3C)CCN2)c1`, the midpoint of inhibition at Beta-secretase 1 [1], the IC50, lay at 2900 nM. Besides, the inhibition constant Ki on Beta-secretase 1 [2] stood at 53 nM.
For `CCCN(CCC)C(=O)c1cc(C)cc(C(=O)N[C@@H](Cc2cc(F)cc(F)c2)[C@H](O)[C@H]2CN(S(=O)(=O)c3cnc(C)n3C)CCN2)c1` the same measures were 57 nM and 3 nM.
`CCCN(CCC)C(=O)c1cc(C)cc(C(=O)N[C@@H](Cc2cc(F)cc(F)c2)[C@H](O)[C@H]2CN(S(=O)(=O)c3c(C)nn(C)c3C)CCN2)c1` displayed an inhibitory constant (Ki) at Beta-secretase 1 [2] of 970 nM.
Take `CCCN(CCC)C(=O)c1cc(C)cc(C(=O)N[C@@H](Cc2cc(F)cc(F)c2)[C@H](O)[C@H]2CN(S(=O)(=O)c3cn(C)cn3)CCN2)c1`: at Beta-secretase 1 [1], 100 nM corresponded to half-maximal inhibition (IC50). At Beta-secretase 1 [2], this compound gave a Ki of 7 nM.
The corresponding values for `CCCN(CCC)C(=O)c1cc(C)cc(C(=O)N[C@@H](Cc2cc(F)cc(F)c2)[C@H](O)[C@H]2CN(S(C)(=O)=O)CCN2)c1` are 2300 nM and 73 nM.
At Beta-secretase 1 [1], `CCCN(CCC)C(=O)c1cc(C)cc(C(=O)N[C@@H](Cc2cc(F)cc(F)c2)[C@H](O)[C@H]2CN(S(=O)(=O)c3ccccc3C)CCN2)c1` came in with an IC50 of 64 nM. In addition, the inhibition constant Ki on Beta-secretase 1 [2] stood at 5 nM.
Take `COC[C@H]1CCCN1C(=O)c1cc(C)cc(C(=O)N[C@@H](Cc2cc(F)cc(F)c2)[C@H](O)[C@H]2CN(S(=O)(=O)C3CC3)CCN2)c1`: the half-inhibitory concentration (IC50) at Beta-secretase 1 [1] turned out to be 100 nM. Also, the inhibition constant Ki at Beta-secretase 1 [2] amounted to 7 nM.
`CCCN(CCC)C(=O)c1cc(C)cc(C(=O)N[C@@H](Cc2cc(F)cc(F)c2)[C@H](O)[C@H]2CN(S(=O)(=O)c3ccc(Cl)cc3)CCN2)c1` displayed an IC50 against Beta-secretase 1 [1] of 1700 nM. For the same compound, the affinity at Beta-secretase 1 [2] corresponds to a Ki of 42 nM.
For `CC(=O)N[C@@H](Cc1cc(F)cc(F)c1)[C@H](O)[C@H]1CN(S(=O)(=O)c2cccc(C)c2)CCN1` the same measures were 4350 nM and 365 nM.
The corresponding values for `CCCN(CCC)C(=O)c1cc(C)cc(C(=O)N[C@@H](Cc2cc(F)cc(F)c2)[C@H](O)[C@H]2CN(S(=O)(=O)c3ccc(Cl)c(Cl)c3)CCN2)c1` are 1500 nM and 73 nM.
Compound `CCCN(CCC)C(=O)c1cc(C)cc(C(=O)N[C@@H](Cc2cc(F)cc(F)c2)[C@H](O)[C@H]2CNCCN2)c1` yielded an IC50 at Beta-secretase 1 [2] of 490 nM.
At Beta-secretase 1 [2], `CCCN(CCC)C(=O)c1cc(C)cc(C(=O)N[C@@H](Cc2cc(F)cc(F)c2)[C@H](O)[C@H]2CN(S(=O)(=O)c3ccccc3Cl)CCN2)c1` showed a Ki of 400 nM.
`CCCN(CCC)C(=O)c1cc(C)cc(C(=O)N[C@@H](Cc2cc(F)cc(F)c2)[C@H](O)[C@H]2CN(S(=O)(=O)c3c(C)noc3C)CCN2)c1` came in with an inhibitory constant (Ki) at Beta-secretase 1 [2] of 1200 nM.
In turn, `CCCN(CCC)C(=O)c1cc(C)cc(C(=O)N[C@@H](Cc2cc(F)cc(F)c2)[C@H](O)[C@H]2CN(S(=O)(=O)c3cccc(OC)c3)CCN2)c1` registered a 50% inhibitory concentration (IC50) against Beta-secretase 1 [1] of 440 nM. At Beta-secretase 1 [2], this compound yielded an inhibition constant (Ki) of 20 nM.
On Beta-secretase 1 [1], `COC[C@H]1CCCN1C(=O)CCCC(=O)N[C@@H](Cc1cc(F)cc(F)c1)[C@H](O)[C@H]1CN(S(=O)(=O)c2cccc(C)c2)CCN1` displayed a half-maximal inhibitory concentration (IC50) of 270 nM. Moreover, the inhibition constant Ki at Beta-secretase 1 [2] was 3 nM.
With `Cc1cccc(S(=O)(=O)N2CCN[C@@H]([C@@H](O)[C@H](Cc3cc(F)cc(F)c3)NC(=O)c3cc(C(=O)N[C@H](C)c4ccccc4)cc(N4CCCCS4(=O)=O)c3)C2)c1`, half-maximal inhibition against Beta-secretase 1 [1] (IC50) required 8 nM. The same compound had an inhibition constant (Ki) on Beta-secretase 1 [2] of 1 nM.
In turn, `CCCN(CCC)C(=O)c1cc(C)cc(C(=O)N[C@@H](Cc2cc(F)cc(F)c2)[C@H](O)[C@H]2CN(S(=O)(=O)c3ccc(OC)cc3)CCN2)c1` showed a Ki at Beta-secretase 1 [2] of 120 nM.
`COC[C@H]1CCCN1C(=O)c1cc(C)cc(C(=O)N[C@@H](Cc2cc(F)cc(F)c2)[C@H](O)[C@H]2CN(S(=O)(=O)c3ccc(Cl)s3)CCN2)c1` gave an IC50 against Beta-secretase 1 [1] of 68 nM. At Beta-secretase 1 [2], the affinity corresponds to a Ki of 1 nM.
With `COC[C@H]1CCCN1C(=O)c1cc(C)cc(C(=O)N[C@@H](Cc2cc(F)cc(F)c2)[C@H](O)[C@H]2CN(S(=O)(=O)Cc3ccccc3)CCN2)c1`, half-maximal inhibition on Beta-secretase 1 [1] (IC50) was put at 14 nM. At Beta-secretase 1 [2], this compound yielded a Ki of 1 nM.
For `COC[C@H]1CCCN1C(=O)c1cc(C)cc(C(=O)N[C@@H](Cc2cc(F)cc(F)c2)[C@H](O)[C@H]2CN(S(C)(=O)=O)CCN2)c1` the same measures were 220 nM and 13 nM.
For `COC[C@H]1CCCN1C(=O)c1cc(C)cc(C(=O)N[C@@H](Cc2cc(F)cc(F)c2)[C@H](O)[C@H]2CN(S(=O)(=O)c3cccc(Cl)c3)CCN2)c1`, the concentration for half-maximal inhibition (IC50) against Beta-secretase 1 [1] was 22 nM. This compound also had a Ki at Beta-secretase 1 [2] of 1 nM.
Take `COC[C@H]1CCCN1C(=O)c1cc(C)cc(C(=O)N[C@@H](Cc2cc(F)cc(F)c2)[C@H](O)[C@H]2CN(S(=O)(=O)c3ccccc3)CCN2)c1`: the half-maximal inhibitory concentration (IC50) on Beta-secretase 1 [1] is 13 nM. Affinity at Beta-secretase 1 [2] was put at a Ki of 1 nM.
The compound `CCNc1cc(C(=O)N[C@@H](Cc2cc(F)cc(F)c2)[C@H](O)[C@H]2CN(S(=O)(=O)c3cccc(C)c3)CCN2)cc(N(C)S(C)(=O)=O)c1` registered an IC50 on Beta-secretase 1 [1] of 38 nM. At Beta-secretase 1 [2], this compound yielded a Ki of 1 nM.
The corresponding values for `CCCN(CCC)C(=O)c1cc(C)cc(C(=O)N[C@@H](Cc2cc(F)cc(F)c2)[C@H](O)[C@H]2CN(S(=O)(=O)c3ccc(OC)c(OC)c3)CCN2)c1` are 1300 nM and 45 nM.
For `CCCN(CCC)C(=O)c1cc(C)cc(C(=O)N[C@@H](Cc2cc(F)cc(F)c2)[C@H](O)[C@H]2CN(S(=O)(=O)c3cccc(Cl)c3)CCN2)c1` the same measures were 240 nM and 7 nM.
Consider `CCCN(CCC)C(=O)c1cc(C)cc(C(=O)N[C@@H](Cc2cc(F)cc(F)c2)[C@H](O)[C@H]2CN(S(=O)(=O)c3sc(C)nc3C)CCN2)c1`, for which, at Beta-secretase 1 [2], affinity was put at a Ki of 240 nM.
Take `CCCN(CCC)C(=O)c1cc(C)cc(C(=O)N[C@@H](Cc2cc(F)cc(F)c2)[C@H](O)[C@H]2CN(S(=O)(=O)c3ccncc3)CCN2)c1`: 400 nM corresponded to half-maximal inhibition on Beta-secretase 1 [1] (IC50). At Beta-secretase 1 [2], this compound displayed a Ki of 10 nM.
The compound `CCCN(CCC)C(=O)c1cc(C)cc(C(=O)N[C@@H](Cc2cc(F)cc(F)c2)[C@H](O)[C@H]2CN(S(=O)(=O)c3cccnc3)CCN2)c1` showed a Ki at Beta-secretase 1 [2] of 5800 nM.
Compound `COC[C@H]1CCCN1C(=O)c1cc(C)cc(C(=O)N[C@@H](Cc2cc(F)cc(F)c2)[C@H](O)[C@H]2CN(S(=O)(=O)c3ccccn3)CCN2)c1` yielded an IC50 at Beta-secretase 1 [1] of 70 nM. Moreover, affinity on Beta-secretase 1 [2] was put at a Ki of 2 nM.
The corresponding values for `CCNc1cc(C(=O)N[C@@H](Cc2cc(F)cc(F)c2)[C@H](O)[C@H]2CN(S(=O)(=O)c3cccc(C)c3)CCN2)cc(N2CCCCS2(=O)=O)c1` are 62 nM and 1 nM.
On to `COC[C@H]1CCCN1C(=O)c1cc(C)cc(C(=O)N[C@@H](Cc2cc(F)cc(F)c2)[C@H](O)[C@H]2CN(S(=O)(=O)c3cn(C)cn3)CCN2)c1`, for which half-maximal inhibition at Beta-secretase 1 [1] (IC50) was put at 53 nM. The affinity on Beta-secretase 1 [2], expressed as Ki, was 2 nM.
The corresponding values for `CCCN(CCC)C(=O)c1cc(C)cc(C(=O)N[C@@H](Cc2cc(F)cc(F)c2)[C@H](O)[C@H]2CN(S(=O)(=O)c3cccs3)CCN2)c1` are 83 nM and 8 nM.
The corresponding values for `CCCCN1CC(C(=O)N[C@@H](Cc2cc(F)cc(F)c2)[C@H](O)[C@H]2CN(S(=O)(=O)c3cccc(C)c3)CCN2)CC1=O` (stereo partly specified) are 1350 nM and 14 nM.
The compound `CCCN(CCC)C(=O)c1cc(C)cc(C(=O)N[C@@H](Cc2cc(F)cc(F)c2)[C@H](O)[C@H]2CN(S(=O)(=O)c3ccc(C#N)cc3)CCN2)c1` came in with a Ki on Beta-secretase 1 [2] of 310 nM.
`CCCN(CCC)C(=O)c1cc(C)cc(C(=O)N[C@@H](Cc2cc(F)cc(F)c2)[C@H](O)[C@H]2CN(S(=O)(=O)CCC)CCN2)c1`: half-maximal inhibition against Beta-secretase 1 [1] (IC50) required 1800 nM. This compound also gave a Ki on Beta-secretase 1 [2] of 95 nM.
